This is an account of results in patent US11987795B2, “Methods of modulating SLC7A11 pre-mRNA transcripts for diseases and conditions associated with expression of SLC7A11” (The Broad Institute, Inc., priority 2020, dated 2024).

Like-named read-outs stand apart in the source and are kept apart here.

For series [1] the following is noted: humans, long term administration; cited from earlier work.
For the next series, the system named is mdx mice. As to the kind of experiment: Wire hang test in mdx mice. Format: in vivo. Particulars: dantrolene 10 mg/kg/day with oligo AON23 10 mg/kg/week versus AON23 10 mg/kg/week alone, p=0.022.
The test system of another series is K562 cells. As to the kind of experiment: Maximal respiration with sulfasalazine inhibition of the transporter. Format: cell-based, human. Particulars: FIG. S7A-E. Here is the method: 1.25×10^5 K562 cells were plated on a Seahorse plate in Seahorse XF DMEM media (Agilent) containing 25 mM glucose and 4 mM glutamine (ThermoFisher Scientific). Oxygen consumption and extracellular acidification rates were simultaneously recorded by a Seahorse XFe96 Analyzer (Agilent) using the mito stress test protocol, in which cells were sequentially perturbed by […] oligomycin, 1 μM CCCP and […] antimycin (Sigma). Data were analyzed using the Seahorse Wave Desktop Software (Agilent). Data were not corrected for carbonic acid derived from respiratory CO2. For seahorse in HeLa and HAP1 cells, 5×104 and 1×10^5 cells were plated in a 96-well seahorse plate the day before the experiment (respectively). Cells were trypsinized after the experiment and recounted and the data was normalized to cell number.

The target of series [2] is T1, cystine/glutamate antiporter SLC7A11 (xCT) (Homo sapiens, UniProt Q9UPY5).
T1 construct: endogenous in cells; host or cells: K562 (probable)
T1 sequence (Q9UPY5 1-501): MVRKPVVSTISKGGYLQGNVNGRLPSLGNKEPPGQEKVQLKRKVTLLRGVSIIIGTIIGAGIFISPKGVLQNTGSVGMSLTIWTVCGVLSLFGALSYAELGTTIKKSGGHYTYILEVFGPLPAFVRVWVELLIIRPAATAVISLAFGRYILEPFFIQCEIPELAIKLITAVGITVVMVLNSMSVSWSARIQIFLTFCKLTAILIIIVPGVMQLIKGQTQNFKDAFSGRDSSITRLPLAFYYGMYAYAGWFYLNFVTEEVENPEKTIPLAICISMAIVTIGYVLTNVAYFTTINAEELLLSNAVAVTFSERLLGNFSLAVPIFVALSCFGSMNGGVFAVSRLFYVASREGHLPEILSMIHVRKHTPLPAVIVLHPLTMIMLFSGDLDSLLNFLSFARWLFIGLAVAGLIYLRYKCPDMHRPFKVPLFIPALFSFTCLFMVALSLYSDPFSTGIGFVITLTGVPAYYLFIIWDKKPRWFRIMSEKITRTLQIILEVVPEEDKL
T1 sequence (P08195 1-529 partner): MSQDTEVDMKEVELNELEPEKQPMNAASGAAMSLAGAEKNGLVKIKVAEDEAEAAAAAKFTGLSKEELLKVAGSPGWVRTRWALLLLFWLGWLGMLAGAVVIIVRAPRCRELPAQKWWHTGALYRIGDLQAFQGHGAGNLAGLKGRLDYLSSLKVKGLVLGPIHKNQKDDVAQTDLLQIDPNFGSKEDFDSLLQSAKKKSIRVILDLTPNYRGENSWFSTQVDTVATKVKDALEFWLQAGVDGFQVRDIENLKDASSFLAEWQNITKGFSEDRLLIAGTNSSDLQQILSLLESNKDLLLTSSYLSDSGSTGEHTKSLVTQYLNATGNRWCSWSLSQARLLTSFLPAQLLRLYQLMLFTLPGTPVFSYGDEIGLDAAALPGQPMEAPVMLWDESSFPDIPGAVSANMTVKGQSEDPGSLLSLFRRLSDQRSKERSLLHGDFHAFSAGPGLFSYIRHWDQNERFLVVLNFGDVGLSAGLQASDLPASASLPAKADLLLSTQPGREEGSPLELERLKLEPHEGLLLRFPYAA
As to the kind of experiment: Glutamate secretion with sulfasalazine inhibition of the transporter. Type of series: cell-based. Particulars: K562 cells; FIG. S7A-E. On the procedure:
Glutamate levels were determined using a commercially available AMPLEX kit (Life Technologies). LUC7L2WT, LUC7L2Rescue (LUC7L2KO cells were a LUC7L2 cDNA was stably expressed), LUC7L2KO and ASO treated K562 or HAP1 cells were grown for 24 h in fresh culture media and counted. Cells were then washed with PBS, the media was replaced and the cells were incubated for another 3 h. Medias were then collected and centrifuged at 2,000 g for 3 min, and glutamate concentrations were determined from the supernatant.

The next series concerns the target T2, PFKM (Homo sapiens, UniProt P08237).
T2 sequence (P08237 2-780 limits assumed): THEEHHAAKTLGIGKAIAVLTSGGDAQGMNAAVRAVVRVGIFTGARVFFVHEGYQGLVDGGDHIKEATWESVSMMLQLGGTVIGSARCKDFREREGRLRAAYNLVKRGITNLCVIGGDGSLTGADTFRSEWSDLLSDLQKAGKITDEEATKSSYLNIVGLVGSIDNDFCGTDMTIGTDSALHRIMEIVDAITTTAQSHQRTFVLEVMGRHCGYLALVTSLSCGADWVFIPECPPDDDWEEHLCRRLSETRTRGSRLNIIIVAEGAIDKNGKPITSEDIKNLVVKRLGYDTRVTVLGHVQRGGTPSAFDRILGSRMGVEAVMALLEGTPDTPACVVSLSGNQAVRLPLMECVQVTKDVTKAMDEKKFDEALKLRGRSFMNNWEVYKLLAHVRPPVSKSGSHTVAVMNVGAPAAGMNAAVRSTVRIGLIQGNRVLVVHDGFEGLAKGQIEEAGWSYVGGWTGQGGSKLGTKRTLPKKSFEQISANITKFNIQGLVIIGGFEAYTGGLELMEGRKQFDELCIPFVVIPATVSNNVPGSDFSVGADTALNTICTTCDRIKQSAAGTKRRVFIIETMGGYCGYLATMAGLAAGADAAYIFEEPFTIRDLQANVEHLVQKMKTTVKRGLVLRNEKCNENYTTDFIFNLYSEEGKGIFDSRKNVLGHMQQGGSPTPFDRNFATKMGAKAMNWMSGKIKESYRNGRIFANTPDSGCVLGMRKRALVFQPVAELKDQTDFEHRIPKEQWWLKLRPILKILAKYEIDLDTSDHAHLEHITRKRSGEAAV
Particulars: PFKM / PFK inhibition, cited from earlier work.

Regarding `O=C1CN(/N=C/c2ccc(-c3ccc([N+](=O)[O-])cc3)o2)C(O)=N1` [Dantrolene], in series [1], the “dose shown to be safe” value is “up to 8 mg/kg/day”. Moreover, the “functional benefit in wire hang test” value in the series with mdx mice is given as “functional benefit”.
With `O=C(O)c1cc(/N=N/c2ccc(S(=O)(=O)Nc3ccccn3)cc2)ccc1O` [sulfasalazine (SAS), sulfasalazine], the maximal respiration entry in the series on K562 cells was “promoted maximal respiration”. Further, the glutamate secretion result in series [2] is “prevented glutamate secretion”.
For tryptolinamide [tryptonilamide], the “shift of energy metabolism from glycolysis to OXPHOS” value was “glycolysis to OXPHOS shift” at PFKM and “strong effect” at PFKM (listed as tryptolinamide).
